Data taken from patent publication US20010020100A1, “N-substituted-1, 2, 4-triazolone compounds for treatment of cardiovascular disorders” (G.D. Searle & Co., priority 1994, published 2001).
“And” between values parts separate entries of the source, which are not always exact repeats. Equal entries are not always repeated.

Columns and labels:
[1] = target: smooth muscle angiotensin II receptor; test: Assay A: Angiotensin II Binding Activity (125I-AII displacement, rat uterine membrane preparation); conditions: 50% displacement of specifically bound 125I-AII, rat uterine membranes, 25° C., 60 min
Description: Compounds of the invention were tested for ability to bind to the smooth muscle angiotensin II receptor using a rat uterine membrane preparation. […] Rat uterine membranes were prepared from fresh tissue. All procedures were carried out at 4° C. Uteri were stripped of fat and homogenized in phosphate-buffered saline at pH 7.4 containing 5 mM EDTA. The homogenate was centrifuged at 1500×g for 20 min., and the supernatant was recentrifuged at 100,000×g for 60 min. The pellet was resuspended in buffer consisting of 2 mM EDTA and 50 mM Tris-HCl (pH 7.5) to a final protein concentration of 4 mg/ml. […] The reaction was initiated by the addition of membrane protein and the mixture was incubated at 25° C. for 60 min. The incubation was terminated with ice-cold 50 mM Tris-HCl (pH 7.5) and the mixture was filtered to separate membrane-bound labelled peptide from the free ligand. The incubation tube and filter were washed with ice-cold buffer. Filters were assayed for radioactivity in a Micromedic gamma counter. Nonspecific binding was defined as binding in the presence of 10 μM of unlabelled AII. Specific binding was calculated as total binding minus nonspecific binding. […] Binding data were analyzed by a nonlinear least-squares curve fitting program.

rabbit aortic rings = test: Assay B: In Vitro Vascular Smooth Muscle Response for AII (antagonist activity in aortic rings); assay type: cell-based; conditions: antagonist at 10^-5 M, AII concentration-response curves, Schild calculation; aorta rings from two rabbits, two values per cell
Description: Assay B: In Vitro Vascular Smooth Muscle-Resionse for AII
The compounds of the invention were tested for antagonist activity in rabbit aortic rings. Male New Zealand white rabbits (2-2.5 kg) were sacrificed using an overdose of pentobarbital and exsanguinated via the carotid arteries. The thoracic aorta was removed, cleaned of adherent fat and connective tissue and then cut into 3-mm ring segments. The endothelium was removed from the rings by gently sliding a rolled-up piece of filter paper into the vessel lumen. The rings were then mounted in a water-jacketed tissue bath, maintained at 37° C., between moveable and fixed ends of a stainless steel wire with the moveable end attached to an FT03 Grass transducer coupled to a Model 7D Grass Polygraph for recording isometric force responses. The bath was filled with 20 ml of oxygenated (95% oxygen/5% carbon dioxide) Krebs solution of the following composition (nM) : 130 NaCl, 15 NaHCO3, 15 KCl, 1.2 NaH2PO4, 1.2 MgSO4, 2.5 CaCl2, and 11.4 glucose. […] Angiotensin II concentration-response curves were then recorded (3×10^−10 to 1×10^−5 M). […] The effectiveness of the test compound was expressed in terms of pA2 values and were calculated according to H. O. Schild [Br. J. Pharmacol. Chemother., 2,189-206 (1947)]. […] Each test antagonist was evaluated in aorta rings from two rabbits.

AII pressor response = test: Assay C: In Vivo Intraduodenal Pressor Assay Response for AII Antagonists; set-up: species or system Sprague-Dawley rats; conditions: 30 mg/kg i.d., average of two rats; for Assay C Inhibition: inhibition of AII pressor response, anesthetized ganglion-blocked rats; for Assay C Duration: time from peak percent inhibition to 50% of peak
Description: Assay C: In Vivo Intraduodenal Pressor Assay Response for AII Antagonists
Male Sprague-Dawley rats weighing 225-300 grams were anesthetized with Inactin (100 mg/kg, i.p.) and catheters were implanted into the trachea, femoral artery, femoral vein and duodenum. Arterial pressure was recorded from the femoral artery catheter on a Gould chart recorder (Gould, Cleveland, OH). The femoral vein catheter was used for injections of angiotensin II, mecamylamine and atropine. The tracheal catheter allows for airway patency, and the duodenal catheter was used for intraduodenal (i.d.) administration of test compounds. After surgery, the rats were allowed to equilibrate for 30 minutes. Mecamylamine (3 mg/kg, 0.3 ml/kg) and atropine (400 ug/kg, 0.3 ml/kg) were then given i.v. to produce ganglion blockade. These compounds were administered every 90 minutes throughout the test procedure. Angiotensin II was given in bolus does i.v. (30 ng/kg in saline with 0.5% bovine serum albumin, 0.1 ml/kg) every 10 minutes three times or until the increase in arterial pressure produced was within 3 mmHg for two consecutive AII injections. The last two AII injections were averaged and were taken as the control AII pressor response. Ten minutes after the final control AII injection, the test compound (dissolved in sodium bicarbonate) was administered i.d. at a dose of 30 mg/kg in a volume of 0.2 ml. Angiotensin II injections were then given 5, 10, 20, 30, 45, 60, 75, 90, and 120 minutes after administration of the test compound and response of arterial pressure was monitored. The response to AII was calculated as percent of the control response and then the percent inhibition is calculated as 100 minus the percent control response. Duration of action of a test compound was defined as the time from peak percent inhibition to 50% of peak. One compound at one dose was tested in each rat. Each test compound was tested in two rats and the values for the two rats were averaged.

Row | IC50 [1] [µM] | Compound | Assay B PA2 (rabbit aortic rings) | Assay C Inhibition (AII pressor response) [%] | Assay C Duration (AII pressor response) [min]
1 | 0.0049 | CCCCc1nn(CCCC)c(=O)n1Cc1ccc(-c2ccccc2-c2nnn[nH]2)cc1 [Example 2, 2,5-dibutyl-2,4-dihydro-4-[[2-(1H-tetrazol-5-yl)[1,1′-biphenyl]-4′-yl]methyl]-3H-1,2.4-triazol-3-one] | 9.0 and 9.4 | 100 | >200
2 | 0.101 | CCCCc1nn(CCCC)c(=O)n1Cc1ccc(-c2ccccc2C(=O)O)cc1 [Example 1, 4′-[(1,3-dibutyl-4,5-dihydro-5-oxo-1H-1,2,4-triazol-4-yl)methyl] [1,1′-biphenyl]-2-carboxylic acid] | 7.3 and 6.7 | 93 | 60 to 100
